Data on eleven molecules can be found in patent US4327097A, “Novel penicillins” (Toyama Chemical Co., Ltd., priority 1974, dated 1982).

Each structure is given as a SMILES string. Converted amounts (≈) assume the structure as drawn. Where a name gives a salt, the structure may show the parent alone. Some results are limits rather than exact numbers.

Common to all, as to assay type: cell-based
One assay deals with Pseudomonas aeruginosa. Put plainly: MIC against clinical isolates. As to conditions: unit assumed.
The next assay has as its system Escherichia coli NIHJ. Put plainly: MIC, plate method, standard strains. As to conditions: unit assumed; for MIC Esche--richin coil NIHJ: Table 3, standard strain. The method, then: (§1) The minimum inhibitory concentration (MIC) was determined by the plate method disclosed in "Chemotherapy" (Japan), Vol. 16, (1968), pages 98-99. The culture medium used was a Heart infusion agar (pH 7.4). The number of the cells per plate used in the inoculum was 10^4 (10^6 cells/ml).

In assay [1] the test system is Klebsiella pneumoniae. In words: MIC, plate method, standard strains. As to conditions: unit assumed. The method, then: as §1
Another assay relates to Proteus vulgaris 3027. In words: MIC, plate method, standard strains. The settings on record: unit assumed. On the procedure: as §1
The subject of assay [2] is Staphylococcus aureus 209p. Put plainly: MIC, plate method, standard strains. The settings on record: Table 3, standard strain, Heart infusion agar pH 7.4; unit assumed. On the procedure: as §1
The subject of the next assay is Escherichia coli. In words: MIC against clinical isolates. As to conditions: unit assumed.
The next assay concerns Staphylococcus aureus. Put plainly: MIC against clinical isolates. The settings on record: Table 5-1, clinical isolate; unit assumed.
A further assay deals with Shigella sonnei. In words: MIC against clinical isolates. The settings on record: Table 5-5, clinical isolate; unit assumed. On the procedure:
as §1
(§2) MIC was determined in the same manner as in the preceding paragraph (1).

A further assay relates to Shigella flexneri. In words: MIC against clinical isolates. The settings on record: Table 5-5, clinical isolate; unit assumed. On the procedure: as §1, §2
Assay [3] concerns Klebsiella pneumoniae. Put plainly: MIC against clinical isolates. As to conditions: Table 6-4, clinical isolate; unit assumed.

As to `CN1CCN(C(=O)N[C@@H](C(=O)N[C@@H]2C(=O)N3C(C(=O)[O-])=C(C[n+]4ccccc4)CS[C@H]23)c2ccccc2)C(=O)C1=O` [Compound No. 68], in the assay with Pseudomonas aeruginosa (Table 6-3, clinical isolate), the MIC Pseudomonas aeruginosa GN4 is 12.5 µg/mL (≈ 21.6 µM), the MIC Pseudomonas aeruginosa GN 1035 is 50 µg/mL (≈ 86.4 µM) and the MIC Pseudomonas aeruginosa GN 2565 amounted to 50 µg/mL (≈ 86.4 µM). In the assay on Escherichia coli NIHJ (Table 4, standard strain), this molecule showed an MIC Escherichia coli NIHJ of less than 0.79 µg/mL. In addition, in the assay with Klebsiella pneumoniae [1] (Table 4, standard strain), the MIC Klebsiella pneumoniae is less than 0.79 µg/mL.

For `Cc1nnc(SCC2=C(C(=O)O)N3C(=O)C(NC(=O)C(NC(=O)N4CCN(C)C(=O)C4=O)c4ccccc4)C3SC2)s1` (single isomer, unassigned) [Compound No. 62], in the assay on Pseudomonas aeruginosa (Table 6-3, clinical isolate), the MIC Pseudomonas aeruginosa GN4 was found to be 100 µg/mL (≈ 158 µM), the MIC Pseudomonas aeruginosa GN 82 was 100 µg/mL (≈ 158 µM), the MIC Pseudomonas aeruginosa GN 376 came to 100 µg/mL (≈ 158 µM) and the MIC Pseudomonas aeruginosa GN 2565 was 100 µg/mL (≈ 158 µM).

In turn, `CN1CCN(C(=O)NC(C(=O)NC2C(=O)N3C2SC(C)(C)C3C(=O)O)c2ccc(O)cc2)C(=O)C1=O` (single isomer, unassigned) [compound 48] registered an MIC Proteus vulgaris 3027 in the assay with Proteus vulgaris 3027 (Table 3, standard strain) of less than 0.4 µg/mL. In addition, the MIC Esche--richin coil NIHJ against Escherichia coli NIHJ is less than 0.4 µg/mL. In assay [2], this molecule yielded an MIC Staphylococcus aureus 209p of less than 0.4 µg/mL.

For `CC(=O)OCC1=C(C(=O)O)N2C(=O)[C@@H](NC(=O)[C@H](N)c3ccccc3)[C@H]2SC1` [drawing 247, reference compound], the MIC Proteus vulgaris 3027 in the assay with Proteus vulgaris 3027 (Table 4, standard strain) was 100 µg/mL (≈ 247 µM). The molecule also yielded an MIC Klebsiella pneumoniae with Klebsiella pneumoniae [1] (Table 4, standard strain) of less than 1.57 µg/mL.

Molecule `CC(=O)N1CCN(C(=O)N[C@@H](C(=O)N[C@@H]2C(=O)N3[C@@H]2SC(C)(C)[C@@H]3C(=O)O)c2ccccc2)C(=O)C1` [drawing 188] gave an MIC Proteus vulgaris 3027 against Proteus vulgaris 3027 (Table 3, standard strain) of 3.13 µg/mL (≈ 6.05 µM). The MIC Klebsiella pneumoniae in the assay with Klebsiella pneumoniae [1] (Table 3, standard strain) amounted to 12.5 µg/mL (≈ 24.2 µM).

For `CN1CCN(C(=O)NC(C(=O)N[C@@H]2C(=O)N3[C@@H]2SC(C)(C)[C@@H]3C(=O)O)c2cccs2)C(=O)C1=O` (some centres unmarked) [compound 58], the MIC Esche--richin coil NIHJ with Escherichia coli NIHJ is less than 1.57 µg/mL. Also, the MIC Staphylococcus aureus 209p in [2] is less than 1.57 µg/mL.

In the assay with Escherichia coli (Table 5-2, clinical isolate), `CC(=O)N1CCN(C(=O)N[C@@H](C(=O)N[C@@H]2C(=O)N3[C@@H]2SC(C)(C)[C@@H]3C(=O)O)c2ccccc2)C(=O)C1` [Example 1, sodium salt of 6-[D(-)-α-(4-acetyl-2-oxo-1-piperazinocarbonylamino)phenylacetamido]penicillanic acid] came in with an MIC Escherichia coli GN 3435 of 6.25 µg/mL, an MIC Escherichia coli GN 3452 of 12.5 µg/mL, an MIC Escherichia coli GN 3481 of 12.5 µg/mL and an MIC Escherichia coli K-1 of 6.25 µg/mL. In the assay with Escherichia coli (Table 5-2, clinical isolate), the MIC Escherichia coli K-4 turned out to be 12.5 µg/mL. Besides, in the assay on Staphylococcus aureus, the MIC Staphylococcus aureus F-1 was found to be 12.5 µg/mL, the MIC Staphylococcus aureus F-2 came out at 3.13 µg/mL, the MIC Staphylococcus aureus F-4 stood at 6.25 µg/mL and the MIC Staphylococcus aureus MS 8588 was 6.25 µg/mL. In addition, in the assay with Staphylococcus aureus, the MIC Staphylococcus aureus MS 8596 is 3.13 µg/mL, the MIC Staphylococcus aureus MS 8684 is 3.13 µg/mL and the MIC Staphylococcus aureus MS 8713 is 3.13 µg/mL. Moreover, in the assay on Shigella sonnei, the MIC Shigella sonnei JS 11232 is more than 200 µg/mL and the MIC Shigella sonnei JS 11755 was determined as 12.5 µg/mL. In the assay with Shigella flexneri, this molecule came in with an MIC Shigella flexneri JS 11215 of 100 µg/mL and an MIC Shigella flexneri JS 11839 of 3.13 µg/mL.

On to `CC1(C)S[C@@H]2[C@H](NC(=O)C(c3ccccc3)S(=O)(=O)O)C(=O)N2[C@H]1C(=O)O` (some centres unmarked) [drawing 187, reference compound], for which, in the assay with Escherichia coli NIHJ, the MIC Esche--richin coil NIHJ was found to be 1.57 µg/mL (≈ 3.79 µM).

`Cc1nnc(SCC2=C(C(=O)O)N3C(=O)[C@@H](NC(=O)Cn4cnnn4)[C@H]3SC2)s1` [drawing 249, reference compound] yielded an MIC Proteus vulgaris 3027 against Proteus vulgaris 3027 (Table 4, standard strain) of 200 µg/mL (≈ 440 µM). Further, in the assay on Klebsiella pneumoniae [1] (Table 4, standard strain), the MIC Klebsiella pneumoniae came out at 1.57 µg/mL (≈ 3.45 µM).

Take `CC1(C)S[C@@H]2[C@H](NC(=O)[C@H](N)c3ccccc3)C(=O)N2[C@H]1C(=O)O` [drawing 185, reference compound]: in the assay on Escherichia coli NIHJ, the MIC Esche--richin coil NIHJ was less than 1.57 µg/mL. This molecule also gave an MIC Staphylococcus aureus 209p in assay [2] of less than 1.57 µg/mL.

In the case of `Cc1nnc(SCC2=C(C(=O)O)N3C(=O)[C@@H](NC(=O)Cn4cnnn4)[C@H]3SC2)s1` [Sodium Cephazolin, reference compound], in the assay with Escherichia coli (Table 6-2, clinical isolate), the MIC Escherichia coli GN 3435 amounted to 1.56 µg/mL, the MIC Escherichia coli GN 3452 was 1.56 µg/mL, the MIC Escherichia coli GN 3481 was 1.56 µg/mL and the MIC Escherichia coli K-1 came to 1.56 µg/mL. Moreover, in the assay on Escherichia coli (Table 6-2, clinical isolate), the MIC Escherichia coli K-2 amounted to 1.56 µg/mL and the MIC Escherichia coli K-4 is 3.13 µg/mL. In the assay with Klebsiella pneumoniae [3], the MIC Klebsiella pneumoniae GN 917 was found to be 1.56 µg/mL, the MIC Klebsiella pneumoniae GN 4081 was 3.13 µg/mL and the MIC Klebsiella pneumoniae GN 4117 was found to be 3.13 µg/mL. The MIC Pseudomonas aeruginosa GN4 in the assay on Pseudomonas aeruginosa (Table 6-3, clinical isolate) is more than 200 µg/mL. Further, the MIC Pseudomonas aeruginosa S-4 with Pseudomonas aeruginosa (Table 6-4, clinical isolate) is more than 200 µg/mL.
